Laboratory results from US10189782B2, “Derivatives of indole for the treatment of cancer, viral infections and lung diseases” (BIOKINESIS, priority 2012, dated 2019).
Blank lines part the entries; values can stand above or below the compound they belong to.

Experiments:
K562 cells = assay: Cytotoxicity on human cancer cells (WST-1), K562; assay type: cell-based; conditions: Table 4, K562 leukaemia cells, WST-1 on D4, read-out: K562 IC50
Procedure, shortened: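 Cancer cell lines plated at 500–5,000 cells/well, exposed to compound from D0 under light protection at 37 °C, 5% CO2. On D4, WST-1 added for 30 min to 4 h; absorbance at 450 nm (reference 620 nm). IC50 taken as concentration killing 50% of cells.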

[1] = system: human large lung carcinoma NCI-H460 xenografts; assay: Anti-tumor activity in nude mice bearing subcutaneous human large cell lung carcinoma NCI-H460 xenografts; assay type: in vivo
Experimental: In-Vivo Evaluation of Anti-Tumor Activity of Compound 38 in Nude Mice Bearing Subcutaneous Human Large Cell Lung Carcinoma NCI-11460 Xenografts Protocol:
The effects of one compound of the invention were studied on the tumor growth of human cancer cells in nude mice. The human large lung carcinoma NCI-H460 cell line was obtained from ATCC. The induction in nude mice was realized by subcutaneous injection in the right flank of each mouse with 5×10^6 NCI-H460 cells in 200 μl serum-free medium. When the tumor volume reached 80 mm^3, mice were randomized in 2 groups (10 mice/group).
Mice of group 1 were treated by intraperitoneal injection of vehicle (solutol HS15 at 38% in NaCl 0.9%) according to the treatment schedule 1Q1Dx17.
Mice of group 2 were treated by intraperitoneal injection of compound 38 (diluted in solutol HS15 at 38% in NaCl 0.9%) at 37.5 mg/kg according to the treatment schedule 1Q1Dx17.
The tumor volume was recorded twice a week until the end of the experiment.

NCI-H460 = assay: Cytotoxicity on human cancer cells (WST-1), NCI-H460; assay type: cell-based; conditions: NCI-H460 lung cancer cells, WST-1 on D4, read-out: IC50 (μM) NCIH460
Experimental: (§1) Evaluation of Cytotoxicity Effects on Human Cancer Cells
(§2) The effects of the compounds of the invention on the viability of human cancer cells were studied on various human cancer cell lines of differing tissue origins (A549, NCI-H460: lung cancer; MDA-MB-231: breast cancer; HCT-116, HT-29: colon cancer; MIA-PaCa-2: pancreatic cancer; K562: leukaemia). All cell lines were obtained from ATCC or ECACC. Cells were cultured in the culture media described below, under a 37° C., 5% CO2 humidified atmosphere, according to a standard operating procedure.
NCI-H460: RPMI 1640+10% FBS+10 mM HEPES+1 mM Sodium pyruvate+2.5 g/l glucose
(§3) On D0, the cells were plated in 90 μl in 96 wells plates at densities ranging from 500 to 5,000 cells per well.
(§4) Following addition of the test substance the cells were protected from light. The solvents (DMSO and specific control solvent were added at the maximal concentration: 10 μl/well (3 wells/condition)).
(§5) On D4, the Cell Proliferation Reagent WST-1 was added to each well (10 μl/well), according to a standard operating procedure. The cells were then incubated for 30 min to 4 h at 37° C.-5% CO2. After these incubations, the 96-well plates were shaken thoroughly for 1 min with Multiskan® EX apparatus (Thermo Labsystems, France). The absorbence was measured at 450 nm, the reference wavelength being 620 nm. […]

MIA-PaCa-2 = assay: Cytotoxicity on human cancer cells (WST-1), MIA-PaCa-2; assay type: cell-based; conditions: MIA-PaCa-2 pancreatic cancer cells, WST-1 on D4
Experimental: as §1, §2, §3, §4
(§6) On D4, the Cell Proliferation Reagent WST-1 was added to each well (10 μl/well), according to a standard operating procedure. The cells were then incubated for 30 min to 4 h at 37° C.-5% CO2. After these incubations, the 96-well plates were shaken thoroughly for 1 min with Multiskan® EX apparatus (Thermo Labsystems, France). The absorbence was measured at 450 nm, the reference wavelength being 620 nm. The analysis of the results was performed with the Ascent software 2.6 (Thermo Labsystems, France), Microsoft Excel 2003 and GraphPad Prism 4.03 softwares to give the concentration of the compounds that induces the death of 50% of the cells (IC50).

[2] = system: human colon carcinoma HCT-116 xenografts; assay: Anti-tumor activity in nude mice bearing subcutaneous human colon carcinoma HCT-116 xenografts; assay type: in vivo
Experimental: The effects of one compound of the invention were studied on the tumor growth of human cancer cells in nude mice. […] The induction in nude mice was realized by subcutaneous injection in the right flank of each mouse of 10×10^6 HCT-116 cells in 200 μl serum-free medium. When the tumor volume reached 130 mm^3, mice were randomized in to 3 groups (10 mice/group).
Mice of group 2 were treated by intraperitoneal injection of cisplatin (diluted in NaCl 0.9%) at 4 mg/kg according to the treatment schedule 1Q3Dx3.
The body weight and tumor volume of mice were recorded twice a week until the end of the experiment.

[3] = biological target: T1, Human recombinant MKlp2 motor domain1-519, His tagged (Homo sapiens, UniProt O95235); assay: Microtubule stimulated ATPase activity of the MKlp2 motor domain (Kinesin ELIPA Assay Kit); assay type: biochemical; conditions: Table 3, 22° C., read-out: MKIp2 IC50
T1 construct: Human recombinant MKlp2 motor domain1-519, His tagged; His; purchased Cytoskeleton MP05
T1 sequence (O95235 1-519): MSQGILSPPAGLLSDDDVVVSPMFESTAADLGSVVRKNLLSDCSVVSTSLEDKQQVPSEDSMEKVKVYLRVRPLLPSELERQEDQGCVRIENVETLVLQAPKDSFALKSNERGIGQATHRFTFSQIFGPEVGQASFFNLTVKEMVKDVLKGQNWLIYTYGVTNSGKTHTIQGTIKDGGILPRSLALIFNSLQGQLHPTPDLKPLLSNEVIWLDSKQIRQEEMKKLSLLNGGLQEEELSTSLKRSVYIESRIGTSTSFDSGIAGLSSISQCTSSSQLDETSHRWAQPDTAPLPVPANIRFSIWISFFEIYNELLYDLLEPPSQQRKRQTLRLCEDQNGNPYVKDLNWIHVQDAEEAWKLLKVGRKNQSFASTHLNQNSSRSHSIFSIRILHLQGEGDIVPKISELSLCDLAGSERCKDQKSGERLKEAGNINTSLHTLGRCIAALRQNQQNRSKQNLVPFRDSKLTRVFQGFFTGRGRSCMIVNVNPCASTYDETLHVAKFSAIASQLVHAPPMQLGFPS
Procedure, shortened: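 Microtubule-stimulated ATPase at 22° C, with free phosphate followed in real time by MESG/PNP coupled absorbance at 360 nm. Motor mix in Pipes-NaOH pH 7.0, MgCl2, 30 μM Tx with porcine brain microtubules; reaction started with 5 mM ATP stock at 20% of volume. Kinetic read: 21 readings, 30 s apart.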

MDA-MB-231 = assay: Cytotoxicity on human cancer cells (WST-1), MDA-MB-231; assay type: cell-based; conditions: MDA-MB-231 breast cancer cells, WST-1 on D4
Experimental: as §1, §2, §3, §4, §6

HCT-116 = assay: Cytotoxicity on human cancer cells (WST-1), HCT-116; assay type: cell-based; conditions: HCT-116 colon cancer cells, WST-1 on D4
Experimental: as §1, §2
HCT-116: Mc Coy's 5a+10% FBS+0.5 mM Ultraglutamine
as §3, §4, §5

HT-29 = assay: Cytotoxicity on human cancer cells (WST-1), HT-29; assay type: cell-based; conditions: HT-29 colon cancer cells, WST-1 on D4
Experimental: as §1, §2
HT-29: Mc Coy's 5a+10% FBS+0.5 mM Ultraglutamine
as §3, §4, §5

A549 = assay: Cytotoxicity on human cancer cells (WST-1), A549; assay type: cell-based; conditions: A549 lung cancer cells, WST-1 on D4
Experimental: as §1, §2, §3, §4, §5

[4] = NCI-H460 xenograft nude mice, i.p. 37.5 mg/kg 1Q1Dx17, starting MBW 21 g
[5] = HCT-116 xenograft nude mice, i.p., Cisplatin 4 mg/kg, Cpd 38 37.5 mg/kg, starting MBW 21 g

Compound: COc1ccc(C#N)cc1/C=C(\C#N)c1c[nH]c2ccc(Br)cc12 [Example 38, (Z)-3-(2-(5-bromo-1H-indol-3-yl)-2-cyanovinyl)-4-methoxybenzonitrile]
- IC50 (K562 cells): 30 nM
- Antitumor activity (tumor volume, FIG. 4) ([1]; NCI-H460 xenograft bearing nude mice, 37.5 mg/kg i.p.): Antitumor activity was observed
- MBWC D 0-D 3 (mean body weight change) [1, 4]: -0.96 g
- MBWC D 0-D 4 (mean body weight change) [1, 4]: -1.76 g
- MBWC D 0-D 7 (mean body weight change) [1, 4]: -1.82 g
- MBWC D 0-D 10 (mean body weight change) [1, 4]: -2.12 g
- MBWC D 0-D 14 (mean body weight change) [1, 4]: -1.83 g
- MBWC D 0-D 17 (mean body weight change) [1, 4]: -1.55 g
- Tolerability of treatment ([1]; nude mice bearing NCI-H460 xenograft, 37.5 mg/kg i.p.): well tolerated
- IC50 (NCI-H460): 0.04 µM
- IC50 (MIA-PaCa-2): 0.04 µM
- Antitumor activity (tumor volume, FIG. 3) ([2]; HCT-116 xenograft bearing nude mice, i.p., cisplatin 4 mg/kg, compound 38 37.5 mg/kg): Antitumor activity was observed
- MBWC D 0-D 4 (mean body weight change) [2, 5]: -1.04 g
- MBWC D 0-D 7 (mean body weight change) [2, 5]: -0.76 g
- MBWC D 0-D 10 (mean body weight change) [2, 5]: -1.08 g
- MBWC D 0-D 14 (mean body weight change) [2, 5]: -1.57 g
- MBWC D 0-D 17 (mean body weight change) [2, 5]: -1.58 g
- MBWC D 0-D 21 (mean body weight change) [2, 5]: -1.43 g
- MBWC D 0-D 24 (mean body weight change) [2, 5]: -1.83 g
- MBWC D 0-D 28 (mean body weight change) [2, 5]: -2.54 g
- Tolerability of treatment ([2]; mouse, in vivo, ip, 37.5 mg/kg): well tolerated
- IC50 [3]: 200 nM
- IC50 (MDA-MB-231): 0.07 µM
- IC50 (HCT-116): 0.06 µM

- IC50 [3]: 200 nM
Compound: CN(C)c1ccc(C#N)cc1/C=C(\C#N)c1c[nH]c2ccc(Br)cc12 [Example 39, (Z)-3-(2-(5-bromo-1H-indol-3-yl)-2-cyanovinyl)-4-(dimethylamino)benzonitrile]
- IC50 (K562 cells): 600 nM
- IC50 (HT-29): 0.3 µM
- IC50 (A549): 0.5 µM
- IC50 (MIA-PaCa-2): 0.2 µM
- IC50 (MDA-MB-231): 0.3 µM
